# Source: patent US20240383941A1, “3-ALPHA SUBSTITUTED 3-BETA-HYDROXY-17-OXIMATED ANDROSTANE COMPOUND FOR MODULATION OF THE ALPHA-3 SUBTYPE OF THE GABAA RECEPTOR” (priority 2021, published 2024)
# Several values for one entry are separate records, joined by “and”; a condition that tells them apart may be missing. Equal values may be shown once. Entries after “also recorded” stand apart in the source; their conditions may differ.
# What was measured:
# [1] = Weight increase in growing male rats, experiment 2 (10 days s.c.); assay type: in vivo, Male Wistar rats
# Method: (§1) Animals: Male Wistar rats were kept in group cages, with three animals per cage, from delivery and throughout the period of experiments. The individual animals were marked so that they could be identified throughout the experiment duration. The animals weight an average of 152 g upon arrival. A reversed light dark (12:12 h) cycle was used with the dark period onset at 0600 hrs. Altogether fifty-six (56) rats were used in this study (experiment 1+2). The animals were delivered from the breeder Taconic (Denmark). The study protocol was approved by the Regional Ethics Committee of Umea University, Sweden.
# (§2) Feeding: Standard chow and water were available ad libitum. A reversed 12-h dark-light cycle with lights off at 10.00 am and lights on at 22.00 pm was used. For identification, the rats were marked with a permanent marker on the tail. To avoid the endogenous allopregnanolone fluctuations that are present in the estrous cycle of female rats, male rats were chosen (Frye et al. 2000). The animals were allowed to acclimatize for at least 3 weeks before start of the experimental sessions. During this period, the rats were repeatedly handled and allowed habituation to the new environment and to all new procedures, to minimize stress during the experiments.
# (§3) After 14 days of triad housing, handling and injection training of the animals, the animals were treated for 5 days with IV injections in experiment 1 and 10 days with a daily subcutaneous injection of the assigned treatment in experiment 2 (Table 3 and 4). The injections were given at 08.00 every morning. The animals were weighed the day before onset of the treatment and at the last day of injection i.e. on the 5th or 10th day of treatment. Weight was taken at the time of the last injection. […] The results are shown in FIG. 2 (experiment 1) and FIG. 3 (experiment 2), respectively.
# [2] = molecular target: T1, human α3β3γ2L GABAA receptor subtype (Homo sapiens, UniProt P28472+P34903); test: Whole-cell patch clamp (Dynaflow) on HEK-293 cells expressing the GABAA receptor α3β3γ2L subtype; assay type: cell-based; conditions: for 100 μM GABA mediated current response, area under curve, Mean ± SEM: 1 μM steroid + 100 μM GABA, relative to 100 μM GABA (set as 0%); for reduction (block) of the THDOC enhanced effect / effect on GABAs own effect on current response / reduction of the GABA effect: 100 μM GABA; for reduction (block) of the THDOC enhanced effect / reduction of the GABA effect: stated as size of reduction; for activation of the receptor / own effect in absence of GABA: steroid alone, in absence of GABA and/or THDOC
# T1 construct: expressed in transfected cells; host or cells: HEK-293 cells (wild-type cells obtained from Pasteur Institute, Paris), permanently transfected
# Method: Aim: To investigate the effect of 3α-ethynyl-3β-hydroxy-5α-androstan-17-methoxime and 3α-ethyl-3β-hydroxy-5α-androstan-17-oxime, respectively, on the GABAA receptor function. Experiments were performed both in absence and in presence of the GAMS tetrahydrodeoxycorticosterone (THDOC), in the absence and presence of GABA. In these tests the protocol was optimized to be similar to the physiological conditions in the synaptic cleft.
# Cell culture: Wild-type HEK-293 cells passage 4 (obtained from Pasteur Institute, Paris, France), permanently transfected with cDNA to express the human α3β3γ2L GABAA receptor subtype, were seeded in cell bind culture flasks, grown and maintained at the temperature of +37° C., with a gas mixture of 5% CO2 in the cell incubator. The transfected cells were used for patch-clamp experiments minimum one passages after defrosting and 3-5 days after seeding. The α3β3γ2L cells were seeded for maximal 15 times.
# Electrophysiological recordings: Whole cell patch technique was used to record whole-cell currents from the cells. Patch electrodes were pulled from 1.5 mm O.D., 0.86 mm I.D. borosilicate capillary glass without filament. […] After compensation for liquid junction potential a steady holding potential of −17 mV was used in all experiments. The cells were added to the chip (see below) and kept in EC solution (see above). EC solution with or without steroids and GABA were applied by the Dynaflow™ system (see below). All experiments were performed at room temperature (21-23° C.).
# Dynaflow™ system: Dynaflow™ system with Resolve chips was used for all patch-clamp experiments including steroids. The Resolve chip consists of a glass chip enclosed by a PEEK plastic top part and a supporting plastic bottom part. Both wells and channels are glass coated. The channel width is 150 μm and the height 50 μm. The well volume is 150 μL. Run time at the flow rate of 26 μL/min was 90 min. The pump settings were as follows: BD Plastikpak™ 2 mL syringe with inner diameter of 8.1 mm was used. The syringe pump flow rate for Resolve chip was 26 μL/min.
# The Resolve chip allows synchronized control of switching between 16 experimental solutions. Laminar flow at each solution outlet of the microfluidic chip prevents mixing, and a computer-controlled stage motor is used to move the chip relative to the patch pipette, allowing for relatively rapid solution exchange around the membrane patch. PClamp 9.0 software, DigiData 1322A converter and AxonPatch 200B were used to generate command pulses and collect data. Clampfit 10.3, Prism 6.0 and excel were used for data analyzes.
# GABA and steroids: GABA was dissolved in EC-solution by ultrasound for about 20 minutes at maximal 40° C. to the concentration of 10 mM.
# THDOC was dissolved in ethanol 99.5% to the concentration of 0.2 mM and tested steroids dissolved in ethanol 99.5% to the concentration of 2 mM (with ultrasound). The final ethanol concentration was 0.1% in all end-solutions, including the wash solution (EC) and the solution with GABA alone. End-solutions are the solutions added into the wells of the chip.
# Protocol: The binding site of THDOC is in the […] region of the receptor. To achieve stable response, the cell was exposed to steroid (THDOC and/or steroid) 20 seconds before GABA application. The standard protocol as follow: 20 s preincubation of steoids (100 nM THDOC alone or in combination with one of 1 μM 3α-ethynyl-3β-hydroxy-5α-androstan-17-methoxime and 3α-ethyl-3β-hydroxy-5α-androstan-17-oxime), followed by 2 s application of 100 μM GABA±steroids (100 nM THDOC alone or in combination with one of 1 μM 3α-ethynyl-3β-hydroxy-5α-androstan-17-methoxime and 3α-ethyl-3β-hydroxy-5α-androstan-17-oxime). Washout time was 120 s.
# Steroid (3α-ethynyl-3β-hydroxy-5α-androstan-17-methoxime or 3α-ethyl-3β-hydroxy-5α-androstan-17-oxime)+THDOC, in absence of GABA, were therefore not analyzed. […]
# [3] = Weight increase in growing male rats, experiment 1 (5 days IV); assay type: in vivo, Male Wistar rats
# Method: as §1, §2, §3
# [4] = molecular target: T2, GABAA receptor subtype α1β2γ2 (Homo sapiens, UniProt P14867+P47870); test: Patch clamp on GABAA receptor subtype α1β2γ2, essentially as described in Example 2; assay type: cell-based
# T2 construct: expressed in transfected cells
# GABAA receptor = conditions: table 3 in WO 09/142594; cited from earlier work
# [5] = 1 mg/kg s.c. + 5 mg/kg progesterone + 10 μg/kg 17β-estradiol
# [6] = 2 mg/kg IV daily for 5 days, in 10% 2-Hydroxypropyl-β-cyclodextrin
# T1 sequence (P34903 29-492): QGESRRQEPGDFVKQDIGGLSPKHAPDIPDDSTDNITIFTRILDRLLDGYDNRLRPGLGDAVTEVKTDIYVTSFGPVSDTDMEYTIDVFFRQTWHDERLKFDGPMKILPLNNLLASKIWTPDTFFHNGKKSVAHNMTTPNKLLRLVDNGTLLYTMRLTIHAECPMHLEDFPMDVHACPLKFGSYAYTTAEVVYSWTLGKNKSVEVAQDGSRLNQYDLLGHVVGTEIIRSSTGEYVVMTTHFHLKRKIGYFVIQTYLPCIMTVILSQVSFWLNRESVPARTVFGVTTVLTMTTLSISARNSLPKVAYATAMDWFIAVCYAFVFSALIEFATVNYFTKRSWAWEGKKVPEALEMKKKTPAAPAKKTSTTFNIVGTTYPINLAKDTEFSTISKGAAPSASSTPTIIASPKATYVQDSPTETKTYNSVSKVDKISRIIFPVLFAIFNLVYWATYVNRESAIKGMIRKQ
# T1 sequence (P28472 26-473): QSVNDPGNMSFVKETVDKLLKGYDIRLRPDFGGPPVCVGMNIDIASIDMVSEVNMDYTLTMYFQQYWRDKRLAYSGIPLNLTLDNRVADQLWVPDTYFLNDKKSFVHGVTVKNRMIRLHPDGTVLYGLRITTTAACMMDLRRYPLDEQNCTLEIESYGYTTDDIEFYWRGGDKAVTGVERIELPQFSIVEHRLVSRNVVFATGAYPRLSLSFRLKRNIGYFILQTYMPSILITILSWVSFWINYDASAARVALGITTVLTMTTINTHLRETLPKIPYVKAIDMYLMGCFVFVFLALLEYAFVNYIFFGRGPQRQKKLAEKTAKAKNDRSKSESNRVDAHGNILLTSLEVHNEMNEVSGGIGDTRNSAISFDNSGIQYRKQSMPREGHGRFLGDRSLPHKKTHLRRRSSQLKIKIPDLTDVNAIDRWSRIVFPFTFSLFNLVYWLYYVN
# T1 sequence (P18507 40-475 partner): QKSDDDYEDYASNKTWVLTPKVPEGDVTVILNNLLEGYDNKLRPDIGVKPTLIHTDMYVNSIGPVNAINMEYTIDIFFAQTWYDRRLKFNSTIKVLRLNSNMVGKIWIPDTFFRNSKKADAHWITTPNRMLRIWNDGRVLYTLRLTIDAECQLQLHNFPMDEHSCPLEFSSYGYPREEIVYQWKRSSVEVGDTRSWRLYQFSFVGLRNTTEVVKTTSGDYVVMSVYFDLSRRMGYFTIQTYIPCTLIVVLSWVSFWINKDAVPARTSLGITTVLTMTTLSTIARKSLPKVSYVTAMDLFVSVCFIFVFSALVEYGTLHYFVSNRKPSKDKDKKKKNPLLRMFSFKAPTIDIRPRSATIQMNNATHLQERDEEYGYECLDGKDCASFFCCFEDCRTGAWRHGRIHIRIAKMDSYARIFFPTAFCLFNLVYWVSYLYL
# T2 sequence (P14867 28-456): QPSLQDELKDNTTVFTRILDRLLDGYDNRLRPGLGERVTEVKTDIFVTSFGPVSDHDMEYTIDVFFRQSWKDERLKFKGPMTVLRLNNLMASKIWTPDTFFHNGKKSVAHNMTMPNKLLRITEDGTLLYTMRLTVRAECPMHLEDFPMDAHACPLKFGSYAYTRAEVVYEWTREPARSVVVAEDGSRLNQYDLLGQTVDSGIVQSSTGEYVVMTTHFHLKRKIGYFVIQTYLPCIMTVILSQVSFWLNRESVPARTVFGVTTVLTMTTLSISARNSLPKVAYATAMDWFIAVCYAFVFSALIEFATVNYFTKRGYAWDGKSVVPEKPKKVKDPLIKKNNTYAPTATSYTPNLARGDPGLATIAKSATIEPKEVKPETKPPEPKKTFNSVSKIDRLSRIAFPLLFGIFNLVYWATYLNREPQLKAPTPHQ
# T2 sequence (P47870 25-512 limits assumed): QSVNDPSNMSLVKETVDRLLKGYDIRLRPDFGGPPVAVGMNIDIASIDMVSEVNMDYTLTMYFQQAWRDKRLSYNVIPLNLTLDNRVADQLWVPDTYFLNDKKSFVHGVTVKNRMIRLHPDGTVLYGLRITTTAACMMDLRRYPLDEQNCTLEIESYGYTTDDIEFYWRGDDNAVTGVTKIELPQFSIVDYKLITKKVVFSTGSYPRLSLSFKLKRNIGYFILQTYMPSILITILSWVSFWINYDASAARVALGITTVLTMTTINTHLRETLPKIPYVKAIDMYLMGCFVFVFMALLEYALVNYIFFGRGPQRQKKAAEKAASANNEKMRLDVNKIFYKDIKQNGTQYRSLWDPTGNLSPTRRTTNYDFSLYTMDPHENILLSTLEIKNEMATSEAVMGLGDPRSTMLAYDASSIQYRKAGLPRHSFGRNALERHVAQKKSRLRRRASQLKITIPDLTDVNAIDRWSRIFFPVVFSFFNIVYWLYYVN
# T2 sequence (P18507 40-475 partner): as the sequence (P18507 40-475 partner) above
structure (smiles),measurement,setting,value
C#C[C@]1(O)CC[C@@]2(C)[C@@H](CC[C@@H]3[C@@H]2CC[C@]2(C)C(=O)CC[C@@H]32)C1 [3α-ethynyl-3β-hydroxy-5α-androstan-17-one],weight difference compared to vehicle,[1]; [5],-33 ± 4.4 g
same,weight difference versus E+P control rats,[1]; [5],-23.9 ± 4.4 g
same,weight difference versus E+P control rats,[1]; 5 mg/kg s.c. + 5 mg/kg progesterone + 10 μg/kg 17β-estradiol,-20.4 ± 5.2 g
same,weight difference after 10 days of treatment compared to vehicle,[1]; s.c.,over 20%
same,"Antagonism of 100 nM THDOC-enhancement, α3β3γ2","[2]; 1 μM steroid + THDOC, Table 6","−166 ± 19.9%,"
same,"Effect against GABAs agonistic effect, α3β3γ2","[2]; 1 μM steroid, Table 6","−46 ± 1.3%,"
same,Mean weight increase since arrival,[3]; [6],97.43 g
same,Mean weight increase since treatment start,[3]; [6],11.86 g
same,increase in weight compared to vehicle treated groups,"[3]; 2 mg/kg IV, 5 days",significantly lower
same,"Effect against GABAs agonistic effect, α1β2γ2",[4]; 1 μM steroid,−1.9 ± 2.4%
same,"Antagonism of 100 nM THDOC-enhancement, α1β2γ2",[4]; 1 μM steroid + THDOC,No effect
same,effect as a GAMSA or GAMS,GABAA receptor,no effect
"C#C[C@]1(O)CC[C@]2(C)C3CC[C@]4(C)/C(=N\OC)CCC4C3CC[C@H]2C1 (stereo partly drawn) [GR3053, 3α-ethynyl-3β-hydroxy-5α-androstan-17-methoxime]","100 μM GABA mediated current response, area under curve, Mean ± SEM",[2],−20 ± 2.1%
same,"100 μM GABA mediated current response, area under curve, Mean ± SEM",[2]; listed as 3α-ethynyl-3β-hydroxy-5α-androstan-17-methoxime,−20%
same,reduction (block) of the THDOC enhanced effect,"[2]; 1 μM steroid, 100 nM THDOC",> 100% and 190%
same,effect on GABAs own effect on current response,[2]; 1 μM steroid,some antagonistic effect; also recorded: partial antagonistic effect
same,reduction of the GABA effect,[2]; 1 μM steroid,20%
same,activation of the receptor / own effect in absence of GABA,[2],None
"CC[C@]1(O)CC[C@]2(C)C3CC[C@]4(C)/C(=N\O)CCC4C3CC[C@H]2C1 (stereo partly drawn) [GR3055, 3α-ethyl-3β-hydroxy-5α-androstan-17-oxime]","100 μM GABA mediated current response, area under curve, Mean ± SEM",[2],"−18 ± 3.4%,"
same,"100 μM GABA mediated current response, area under curve, Mean ± SEM",[2]; listed as 3α-ethyl-3β-hydroxy-5α-androstan-17-oxime,−18%
same,reduction (block) of the THDOC enhanced effect,"[2]; 1 μM steroid, 100 nM THDOC",57%
same,effect on GABAs own effect on current response,[2]; 1 μM steroid,partial antagonistic effect
same,reduction of the GABA effect,[2]; 1 μM steroid,18%
same,activation of the receptor / own effect in absence of GABA,[2],None
"C[C@]12CC[C@@H](O)C[C@@H]1CC[C@@H]1[C@@H]2CC[C@]2(C)[C@@H](C(=O)CO)CC[C@@H]12 [THDOC, 3α, 21-dihydroxy-5α-pregnan-20-one, reference compound]",activation of the α3β3γ2L GABAA receptor by THDOC alone,"[2]; 100 nM THDOC, in absence of GABA",did not activate
